Source: patent US12461089B2, “Olfactory receptor involved in the perception of musk fragrance and the use thereof” (ChemoSensoryX Biosciences SA, priority 2017, dated 2025)
Changes are numbered by the printed parent chain. Where two headings read alike, the source gives them in different places.

Columns and labels:
Format in all cases: cell-based
OR5A2_variant 2 = biological target: T1, OR5A2_variant 2 (Homo sapiens, UniProt Q8NGI9, P172L); test: Luciferase reporter concentration-response analysis on haplotype OR5A2_variant 2 (P172L); conditions: CRE-luciferase; empty vector pEFIBRHO as control
T1 construct: (P172L, OR5A2_variant 2); expressed in transfected cells; host or cells: HEK293T-RTP1A1/RTP2
T1 sequence (Q8NGI9 1-324 P172L): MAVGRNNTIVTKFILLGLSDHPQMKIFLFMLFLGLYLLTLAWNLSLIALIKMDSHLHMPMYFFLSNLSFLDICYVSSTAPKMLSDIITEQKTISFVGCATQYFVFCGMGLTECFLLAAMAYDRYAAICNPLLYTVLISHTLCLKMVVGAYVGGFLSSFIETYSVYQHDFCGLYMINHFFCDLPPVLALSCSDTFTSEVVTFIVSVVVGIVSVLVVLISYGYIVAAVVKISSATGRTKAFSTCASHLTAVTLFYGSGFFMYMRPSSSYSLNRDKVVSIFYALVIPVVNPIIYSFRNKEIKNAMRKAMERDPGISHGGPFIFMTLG
Description: HEK293T-RTP1A1/RTP2 cells were maintained in minimal essential medium (EMEM, Lonza) containing 10% fetal bovine serum (M10). These cells were generated by transfecting HEK293T with an expression vector containing the sequences of the chaperone proteins RTP1A1 and RTP2 and a resistance gene to puromycin, using Lipofectamine 2000.
Odorant molecules were diluted at a concentration of 1 mole/liter (M) into dimethyl sulfoxide (DMSO) to generate stock solutions.
For concentration-response analysis, serial dilutions of the tested molecules were prepared from stock solutions in EMEM plated into 96-well plates.
For the initial deorphanisation screening and dose-response analysis, a Luciferase-based gene reporter assay (Promega, Leiden, The Nederlands) was used. Briefly, cells were platted on Poly-D-lysine-coated 96-well and transfected with a plasmid containing the CRE-luciferase and a plasmid containing the olfactory receptor. Sixteen hours after transfection, the culture medium was replaced by serum-free EMEM containing the tested compounds at a determined concentration. After four hours of incubation at 37° C. degree, cells were lysed and processed for luminescence measurement. Luminescene emission was recorded. Results were expressed as luciferase activity (Relative […] Unit (RLU)) or as percentage of the response induced by 10 μM of the adenylate cyclase activator Forskolin. An empty plasmid is used as negative control.
OR genes are highly variable, with many alleles resulting in differences in smell perception from person to person. These differences can be attributed to genetic variations like, for example, nucleotide polymorphisms. […] Amino acids alignment of the 2 haplotypes are represented in FIG. 4.
To test if the substitution could impact the musk sensitivity, luciferase assays were performed as described previously after transfection of both OR5A2 variants. Cells were treated with semi-logarithmic serial dilutions of musk compounds from the four structurally different groups described earlier. In each experiment, an empty vector was used as negative control (pEFIBRHO).

chimeric OR5A2_variant 1 = biological target: T2, chimeric OR5A2_variant 1 (Homo sapiens, UniProt Q8NGI9, F293L/H55R/I289L/M58T); test: Luciferase reporter concentration-response analysis on chimeric OR5A2_variant 1; conditions: CRE-luciferase; empty vector pEFIBRHO as control
T2 construct: expressed in transfected cells; host or cells: HEK293T-RTP1A1/RTP2
T2 sequence (Q8NGI9 with tags, fused parts or gaps H55R/M58T/I289L/F293L): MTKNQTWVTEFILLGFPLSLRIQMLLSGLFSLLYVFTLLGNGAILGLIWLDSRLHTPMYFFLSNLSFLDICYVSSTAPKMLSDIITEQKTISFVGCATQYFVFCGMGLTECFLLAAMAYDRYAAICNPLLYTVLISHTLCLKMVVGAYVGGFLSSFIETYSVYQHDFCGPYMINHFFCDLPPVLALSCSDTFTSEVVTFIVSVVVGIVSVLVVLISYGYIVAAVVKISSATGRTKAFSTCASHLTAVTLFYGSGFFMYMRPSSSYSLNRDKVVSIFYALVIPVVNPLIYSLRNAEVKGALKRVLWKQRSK

OR5A2_variant 1 = biological target: T3, OR5A2_variant 1 (Homo sapiens, UniProt Q8NGI9); test: Luciferase reporter concentration-response analysis on OR5A2_variant 1; conditions: for activation of OR5A2 (OR5A2_variant 1), concentration-response: CRE-luciferase, semi-logarithmic serial dilutions, empty vector pEFIBRHO as control
T3 construct: expressed in transfected cells; host or cells: HEK293T-RTP1A1/RTP2
T3 sequence (Q8NGI9 1-324): T1 sequence (Q8NGI9 1-324 P172L) with L172P

[1] = concentration-response analysis, luciferase reporter, values given as negative (log) numbers, read-out: calculated EC50, OR5A2 (converted)

## O=C1CCC/C=C\CCCCCCCCCC1 [Velvione]
OR5A2_variant 2
  activation of OR5A2_variant 2 (P172L), concentration-response: not activated
Chimeric OR5A2_variant 1
  activation of chimeric OR5A2_variant 1, concentration-response: shows dose response curves
OR5A2_variant 1
  activation of OR5A2 (OR5A2_variant 1), concentration-response: shows dose response curves
OR5A2_variant 1; [1]
  EC50: 28.8 µM

## Cc1c([N+](=O)[O-])c(C)c([N+](=O)[O-])c(C(C)(C)C)c1[N+](=O)[O-] [Musk Xylene, 1-tert-butyl-3,5-dimethyl-2,4,6-trinitrobenzene]
OR5A2_variant 2
  activation of OR5A2_variant 2 (P172L), concentration-response: not activated
Chimeric OR5A2_variant 1
  activation of chimeric OR5A2_variant 1, concentration-response: shows dose response curves
OR5A2_variant 1
  EC50: 1.86 µM
  activation of OR5A2 (OR5A2_variant 1), concentration-response: shows dose response curves

## CC(=O)c1c(C)c([N+](=O)[O-])c(C(C)(C)C)c([N+](=O)[O-])c1C [Musk Ketone, 4-tert-butyl-2,6-dimethyl-3,5-dinitroacetophenone]
OR5A2_variant 2
  activation of OR5A2_variant 2 (P172L), concentration-response: not activated
Chimeric OR5A2_variant 1
  activation of chimeric OR5A2_variant 1, concentration-response: shows dose response curves
OR5A2_variant 1
  activation of OR5A2 (OR5A2_variant 1), concentration-response: shows dose response curves
OR5A2_variant 1; [1]
  EC50: 107 µM
